This passage reports MIC results from DBAASP.

Holding throughout (assay): ≥ marks a high value that may be exact or a test limit, other limits are often not marked, values filed in µg/mL are converted to µM
For assay [1], the system named is Bacillus subtilis KCTC 3068.
Assay [2] concerns Salmonella typhimurium KCTC 1926.
The test system of assay [3] is Staphylococcus aureus MR.
Assay [4] relates to Pseudomonas aeruginosa KCTC 1637.
Assay [5] has as its system Staphylococcus epidermidis KCTC 1917.
Assay [6] relates to Enterococcus faecalis VR.
In assay [7] the test system is Enterococcus faecalis.
In assay [8] the test system is Enterococcus faecium.
Assay [9] has as its system Staphylococcus aureus KCTC 1621.
Assay [10] deals with Escherichia coli KCTC 1682.
Assay [11] relates to Enterococcus faecium VR.
The test system of assay [12] is Staphylococcus aureus ATCC 25923.
The subject of assay [13] is Staphylococcus aureus ATCC 29213.
Assay [14] deals with Salmonella enterica subsp. enterica serovar Typhi CMCC 50071.
Assay [15] has as its system Salmonella enterica subsp. enterica serovar Typhimurium ATCC 14028.
Assay [16] concerns Salmonella enterica subsp. enterica serovar Typhimurium C77-31.
Assay [17] deals with Salmonella enterica subsp. enterica serovar Pullorum C79-13.
For assay [18], the system named is Escherichia coli UB1005.
The test system of assay [19] is Staphylococcus epidermidis ATCC 12228.
Assay [20] relates to Escherichia coli DH5alpha.
For assay [21], the system named is Staphylococcus aureus ATCC 9144.
Assay [22] has as its system Escherichia coli ATCC 10536.
The subject of assay [23] is Bacillus subtilis ATCC 6633.
For assay [24], the system named is Corynebacterium glutamicum ATCC 13032.
Assay [25] relates to Cronobacter sakazakii ATCC BAA-894.
For assay [26], the system named is Pseudomonas fluorescens NCIMB 9046.
Assay [27] has as its system Salmonella enterica subsp. enterica serovar Typhimurium LT2.
Assay [28] relates to Cronobacter sakazakii DSM 4485.
Assay [29] relates to Staphylococcus aureus SA113.
Assay [30] concerns Staphylococcus aureus NCTC 8325-4.
Assay [31] concerns Staphylococcus aureus RF122.
The subject of assay [32] is Staphylococcus aureus RN4220.
Assay [33] relates to Cronobacter muytjensii ATCC 51329.
Assay [34] concerns Cronobacter sakazakii DPC 6440.
The subject of assay [35] is Klebsiella pneumoniae NCIMB 13218.
The subject of assay [36] is Pseudomonas aeruginosa ATCC 27853.
Assay [37] concerns Escherichia coli NCIMB 11843.
For assay [38], the system named is Staphylococcus aureus Newman.

Values after ≈ are worked out from the molar mass of the structure shown.

With `CC[C@H](C)[C@H](NC(=O)[C@H](C)NC(=O)[C@H](CC(C)C)NC(=O)[C@H](CS)NC(=O)[C@H](Cc1cnc[nH]1)NC(=O)[C@H](C)NC(=O)[C@H](C)N)C(=O)NCC(=O)N[C@@H](CCCN=C(N)N)C(=O)N[C@@H](CCCCN)C(N)=O` [AAHCLAIGRK], the MIC in assay [1] was found to be 7.5 µM; in assay [2], 7.5 µM; in assay [3] it was 7.5 µM; in assay [4], 7.5 µM; in assay [5] it was 7.5 µM; in assay [6] it was 30 µM. Moreover, the MIC in [7] worked out at 15 µM; in [8] it was 7.5 µM; in [9], 7.5 µM; in [10], 7.5 µM; in assay [11], 3.8 µM.
As to `CC(C)C[C@H](NC(=O)[C@H](CS)NC(=O)[C@H](CCCCN)NC(=O)[C@H](C)NC(=O)[C@H](C)N)C(=O)N[C@H](C(=O)N[C@@H](CCC(N)=O)C(=O)N[C@@H](CCCN=C(N)N)C(=O)N[C@@H](CCCN=C(N)N)C(=O)N[C@@H](CCCN=C(N)N)C(N)=O)C(C)C` [AAKCLVQRRR], the MIC in [1] worked out at 15 µM (≈ 18 µg/mL); in [2], 7.5 µM (≈ 9 µg/mL); in assay [3], 15 µM (≈ 18 µg/mL); in [4] it was 7.5 µM (≈ 9 µg/mL); in assay [5], 7.5 µM (≈ 9 µg/mL); in assay [6] it was 30 µM (≈ 36 µg/mL). Also, the MIC in [7] came out at 30 µM (≈ 36 µg/mL); in assay [8], 30 µM (≈ 36 µg/mL); in assay [9], 15 µM (≈ 18 µg/mL); in assay [10], 30 µM (≈ 36 µg/mL); in assay [11], 30 µM (≈ 36 µg/mL).
As to `NC(=O)CC[C@H](NC(=O)[C@H](Cc1c[nH]c2ccccc12)NC(=O)[C@H](CCCN=C(N)N)NC(=O)[C@H](CCCN=C(N)N)NC(=O)[C@@H]1CCCN1C(=O)[C@@H](N)Cc1ccccc1)C(=O)N[C@@H](Cc1c[nH]c2ccccc12)C(=O)N[C@@H](CCCN=C(N)N)C(=O)N[C@@H](CCCN=C(N)N)C(=O)N1CCC[C@H]1C(=O)N[C@@H](Cc1ccccc1)C(N)=O` [FPRRWQWRRPF], the minimal inhibitory concentration (MIC) in assay [12] is 32 µM (≈ 52.2 µg/mL); in assay [13] it was 32 µM (≈ 52.2 µg/mL); in assay [14] it was ≥ 128 µM; in [15], 32 µM (≈ 52.2 µg/mL); in assay [16] it was ≥ 64 µM; in [17], 16 µM (≈ 26.1 µg/mL). Further, the MIC in assay [18] stood at 8 µM (≈ 13 µg/mL); in assay [19], 64 µM (≈ 104 µg/mL).
Regarding `CC[C@H](C)[C@H](NC(=O)CNC(=O)CN)C(=O)N[C@@H](CC(C)C)C(=O)N[C@H](C(=O)N[C@@H](C)C(=O)N[C@@H](CCCCN)C(=O)N[C@@H](CC(C)C)C(=O)N[C@H](C(=O)N[C@H](C(=O)N[C@H](C(=O)N[C@@H](CC(C)C)C(=O)NCC(=O)N1CCC[C@H]1C(=O)N[C@@H](C)C(=O)N[C@@H](CC(C)C)C(=O)N[C@H](C(=O)N[C@@H](CO)C(=O)N[C@@H](Cc1c[nH]c2ccccc12)C(=O)N[C@H](C(=O)N[C@@H](CCCCN)C(=O)N[C@@H](CCCN=C(N)N)C(=O)N[C@@H](CCCCN)C(=O)N[C@@H](CCCN=C(N)N)C(=O)N[C@@H](CCC(N)=O)C(=O)N[C@@H](CCC(N)=O)C(N)=O)[C@@H](C)CC)[C@@H](C)CC)[C@@H](C)O)[C@@H](C)O)C(C)C)C(C)C` [GGILVAKLVTTLGPALISWIKRKRQQ], the MIC in [20] came to 4.8 µM (≈ 13.7 µg/mL); in assay [21], 5 µM (≈ 14.2 µg/mL); in assay [22], 4.7 µM (≈ 13.4 µg/mL); in assay [23], 5.8 µM (≈ 16.5 µg/mL).
Regarding `CC[C@H](C)[C@H](NC(=O)[C@H](Cc1c[nH]c2ccccc12)NC(=O)[C@@H](N)CCCCN)C(=O)N[C@H]1CSSC[C@@H](C(=O)N[C@@H](CCCN=C(N)N)C(=O)N[C@@H](Cc2c[nH]c3ccccc23)C(=O)N[C@@H](CCCN=C(N)N)C(=O)O)NC(=O)[C@H](Cc2ccc(O)cc2)NC(=O)[C@H]([C@@H](C)O)NC(=O)[C@H]([C@@H](C)CC)NC(=O)[C@H](Cc2c[nH]c3ccccc23)NC(=O)[C@H](CCCN=C(N)N)NC(=O)CNC(=O)[C@H](CCCN=C(N)N)NC(=O)[C@H](Cc2ccc(O)cc2)NC(=O)[C@H](Cc2c[nH]c3ccccc23)NC(=O)[C@H](CC(C)C)NC(=O)[C@H](CCCN=C(N)N)NC(=O)[C@H](CCCN=C(N)N)NC1=O` [KWICRRLWYRGRWITYCRWR], the minimal inhibitory concentration (MIC) in assay [20] was 12.5 µM (≈ 35.7 µg/mL); in assay [24] it was 0.78 µM (≈ 2.23 µg/mL).
Take `CC(C)C[C@H](NC(=O)[C@H](C)NC(=O)[C@@H](N)C(C)C)C(=O)N[C@@H](CC(N)=O)C(=O)N[C@@H](CCC(=O)O)C(=O)N[C@@H](CC(N)=O)C(=O)N[C@@H](CC(C)C)C(=O)N[C@@H](CC(C)C)C(=O)N[C@@H](CCCN=C(N)N)C(=O)O` [VALNENLLR]: the MIC in assay [25] was ≥ 1250 µM; in assay [26] it was ≥ 2500 µM; in assay [27], ≥ 2500 µM; in [28], ≥ 2500 µM; in [29] it was ≥ 1250 µM; in assay [30], ≥ 625 µM. For the same molecule, the minimum inhibitory concentration (MIC) in assay [31] was ≥ 1250 µM; in assay [32], ≥ 1250 µM; in assay [33], ≥ 625 µM; in [34], ≥ 625 µM; in [35], ≥ 2500 µM; in assay [36], 32 µM (≈ 33.3 µg/mL). The MIC was ≥ 2500 µM in assay [37] and ≥ 1250 µM in assay [38].
`CC(C)C[C@H](NC(=O)[C@H](CC(C)C)NC(=O)[C@H](CC(N)=O)NC(=O)[C@H](CCC(=O)O)NC(=O)[C@H](CC(N)=O)NC(=O)[C@H](CC(C)C)NC(=O)[C@@H](N)C(C)C)C(=O)N[C@@H](CCCCN)C(=O)O` [VLNENLLK]: the MIC in assay [25] is ≥ 2500 µM; in assay [26] it was ≥ 625 µM; in assay [27], ≥ 2500 µM; in assay [28], ≥ 1250 µM; in assay [29], ≥ 1250 µM; in [30], ≥ 1250 µM. The MIC is ≥ 1250 µM in [31]; ≥ 1250 µM in assay [32]; ≥ 1250 µM in assay [33]; ≥ 1250 µM in assay [34]; ≥ 2500 µM in [35]; ≥ 2500 µM in assay [37]. Further, in assay [38], the MIC was ≥ 1250 µM.
